pIC50: −log10 of the molar value.
Test system: Human platelet aggregation induced by ADP (platelet rich plasma)
Assay: Inhibition of human platelet aggregation induced by ADP
Assay type: cell-based
Conditions: human PRP; aggregation induced by ADP at final concentration of 2.5 μM; 37° C.
Protocol: Inhibition of Human Platelet Aggregation Induced by ADP
Human blood was obtained from healthy volunteers and mixed with 1/10 volume of 3.8% sodium citrate, pH 7.4. The citrate blood was centrifuged at 150×g for 10 minutes and the platelet rich plasma (PRP) was removed. The remaining blood was centrifuged for a further 10 minutes at 1500×g to prepare the platelet poor plasma (PPP), which was used as a reference for platelet aggregation. Aggregation studies were carried out using HEMATRACER 801 (NBS, Japan), a 8 channel aggregometer. The test compound solution (25 μl) and the PRP (225 μl) were mixed and stirred at 1000 rpm at 37° C. for 2 minutes. Aggregation was induced by ADP solution at the final concentration of 2.5 μM.

Structure (SMILES): CCOC(=O)COc1cccc(CN2C[C@H](O)C[C@@H]2c2nc(-c3ccccc3)c(-c3ccccc3)o2)c1 [(1)]
- pIC50: > 7.00
